Patent publication US20130102009A1, “SIRTUIN ACTIVATORS AND ACTIVATION ASSAYS” (priority 2010, published 2013)
Values joined by “and” are separate entries in the source; they are usually repeats but may differ in a detail not shown here. Equal entries are not always repeated. Where two headings read alike, the source gives them in different places.

Biological target: T1, SIRT1 (Homo sapiens, UniProt Q96EB6)
T1 sequence (Q96EB6 1-747): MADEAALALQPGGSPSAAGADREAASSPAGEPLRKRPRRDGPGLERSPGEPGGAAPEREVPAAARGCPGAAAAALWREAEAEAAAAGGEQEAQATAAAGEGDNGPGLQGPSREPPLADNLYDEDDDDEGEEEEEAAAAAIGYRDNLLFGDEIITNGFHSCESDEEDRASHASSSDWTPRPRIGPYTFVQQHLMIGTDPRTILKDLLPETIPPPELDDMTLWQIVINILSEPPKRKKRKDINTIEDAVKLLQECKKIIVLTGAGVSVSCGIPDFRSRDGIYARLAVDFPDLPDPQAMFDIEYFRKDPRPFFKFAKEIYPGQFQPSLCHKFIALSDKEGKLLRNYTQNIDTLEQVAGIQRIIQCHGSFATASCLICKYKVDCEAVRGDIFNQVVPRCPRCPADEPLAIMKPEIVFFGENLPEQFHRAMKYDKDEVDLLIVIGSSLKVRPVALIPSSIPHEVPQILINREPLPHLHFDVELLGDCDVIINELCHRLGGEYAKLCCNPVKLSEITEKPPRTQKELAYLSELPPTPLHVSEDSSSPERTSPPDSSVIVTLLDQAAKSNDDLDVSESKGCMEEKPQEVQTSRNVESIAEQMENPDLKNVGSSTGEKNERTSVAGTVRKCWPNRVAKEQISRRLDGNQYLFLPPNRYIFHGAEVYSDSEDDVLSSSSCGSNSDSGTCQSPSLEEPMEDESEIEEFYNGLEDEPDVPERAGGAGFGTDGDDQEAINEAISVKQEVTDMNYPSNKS
Assay: Mass spectroscopic kinetic assay of SIRT1-catalyzed deacetylation of 20mer peptides
Assay type: biochemical
Description: Bovine glutamate dehydrogenase (GDH), α-ketoglutarate, NADH and NAD^+ were from Sigma Chemical Company. […] The nicotinamidase PNC1 was prepared as described by Denu and colleagues (Smith et al. (2009) Anal Biochem 394, 101-109). Our collection of approximately 5,000 SIRT1 activators was screened using the BioTrove mass spectrometry system, as previously described (Milne et al. (2007) Nature 450, 712-716). […] Compounds were present at 10 μM, and the assays were conducted in a pH 7.4 buffer containing 150 mM Tris, 5 mM DTT, 1% DMSO, and 0.025% BSA. To determine the interaction of STACs with SIRT1 two kinetic methods were employed. […] (2007) Nature 450, 712-716). The other, used with peptides of general structure […], used a continuous, enzyme-coupled method reported previously (Smith et al. (2009) Anal Biochem 394, 101-109), in which the SRT1 product nicotinamide is first converted into nicotinic acid and ammonia by the action of PNC1, and the ammonia then used by GDH to convert α-ketoglutarate into glutamate. This reaction occurs with oxidation of NADH to NAD^+ which is accompanied by a change in absorbance at 340 nm (Δε340=-6,200 M^-1 cm^-1). Activator titrations were plotted as relative velocity (i.e., the ratio of vx, velocity in the presence of activator X, to vo, velocity in the absence of activator) vs. [X]o, initial concentration of activator, and fit by nonlinear least-squares to the mechanism-independent expression for enzyme activation of […] the maximum relative velocity (i.e., vx/vo at infinite [X]o) and EC50 is the activator concentration at which vx/vo=(RVmax-1)/2. EC50 is a function of the kinetic mechanisms of both catalysis and activation, and the concentrations of substrates.

## CCCCc1nc(NC2CCNCC2)cc(C(=O)Nc2ccccc2-c2nc3cc(COC4CCNCC4)cnc3s2)n1 [Compound 10, 2-butyl-6-(piperidin-4-ylamino)-N-(2-(6-((piperidin-4-yloxy)methyl)thiazolo[5,4-b]pyridin-2-yl)phenyl)pyrimidine-4-carboxamide]
Substrate TAMRA-peptide, fit to eq (1)
  RVmax (maximum relative velocity): 6.8±0.3
Substrate TAMRA-peptide, fit to eq (1), read-out: EC50 (Kx) for activation of SIRT1-catalyzed deacetylation of TAMRA-peptide
  EC50: 3900 ± 500 nM
Substrate des(biotin,TAMRA)-peptide
  Effect on the deacetylation of des(biotin,TAMRA)-peptide: none activate
Substrate desTAMRA-peptide, fit to eq (1)
  RVmax for activation of the deacetylation of desTAMRA-peptide: ~2.3
Substrate desTAMRA-peptide, fit to eq (1), listed as 22
  RVmax for activation of the deacetylation of desTAMRA-peptide: 2.6 ± 0.1
Substrate desTAMRA-peptide, fit to eq (1), read-out: EC50 for activation of the deacetylation of desTAMRA-peptide
  EC50: ~2000 nM and 1700 nM
Substrate p53-20 mer, RV=1/(1+([X]o/Ki,app))
  Ki,app for inhibition of the deacetylation of p53-20 mer: inhibit
Substrate p53-20 mer, RV=1/(1+([X]o/Ki,app)), read-out: Ki,app for inhibition of the deacetylation of p53-20 mer
  Ki: 9000 nM
